Measurements as given in patent US12478605B2, “Biochanin a derivatives for treatment of BEST1-related retinopathies” (Universität Regensburg, priority 2020, dated 2025).
Counter-ions that a name gives are not always drawn.

Key:
mutant BEST1 R218C [1] = biological target: T1, mutant BEST1 R218C (Homo sapiens, UniProt O76090, R218C); assay: YFP-based I- efflux assay in MDCKII cells co-expressing YFP and mutant BEST1 R218C; format: cell-based; details: 5 μM, compound addition for 24 h, FIGS. 6-8
T1 construct: expressed in transfected cells
T1 sequence (O76090 1-585 R218C): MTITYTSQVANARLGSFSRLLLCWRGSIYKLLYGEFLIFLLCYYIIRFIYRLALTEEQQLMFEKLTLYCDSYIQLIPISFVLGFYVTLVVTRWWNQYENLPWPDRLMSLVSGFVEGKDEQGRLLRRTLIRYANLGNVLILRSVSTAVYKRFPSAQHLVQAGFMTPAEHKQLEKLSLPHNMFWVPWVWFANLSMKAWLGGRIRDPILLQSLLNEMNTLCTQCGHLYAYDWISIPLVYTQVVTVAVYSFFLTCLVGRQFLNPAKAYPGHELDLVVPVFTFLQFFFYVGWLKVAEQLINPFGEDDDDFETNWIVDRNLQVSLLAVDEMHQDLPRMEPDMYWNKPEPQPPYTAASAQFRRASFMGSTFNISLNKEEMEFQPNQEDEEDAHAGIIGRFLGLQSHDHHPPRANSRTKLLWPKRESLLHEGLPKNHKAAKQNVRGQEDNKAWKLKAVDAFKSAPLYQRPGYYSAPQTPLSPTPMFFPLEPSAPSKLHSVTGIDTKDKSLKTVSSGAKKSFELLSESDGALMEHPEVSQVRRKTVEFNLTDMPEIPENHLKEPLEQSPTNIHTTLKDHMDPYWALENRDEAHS
Method: MDCKII cells co-expressing yellow fluorescence protein (YFP) and mutant BEST1 R218C were seeded on black 96-well plates and cultivated for 6 days to achieve polarity, a crucial requirement for correct basolateral localization of BEST1 in epithelial cells. Compounds were tested at 5 μM concentration in a 96-well format. After compound addition for 24 h, cells were subjected to an outwardly directed iodid (I^−)-gradient to drive BEST1-mediated I^− efflux and produce increasing fluorescence signals. Each assay consisted of recording of YFP quenching after I^− pre-incubation for 6 min (=100% value), followed by 7 min of recording of increasing fluorescence after addition of the chloride (Cr) containing solution. Changes of fluorescence intensities were monitored on a plate reader. The effect on the kinetics of I— efflux was tested for Biochanin A (FIG. 6A), Trimethoxyisoflavone (FIG. 6B), 5,4-dimethoxy hydroxyisoflavone (FIG. 6C), Biochanin A-7-methyl ether (FIG. 6D), Biochanin A-7-acetate (FIG. 6E), Biochanin A diacetate (FIG. 6F), Biochanin A-7-pentanoate (FIG. 6G), Biochanin A dipentanoate (FIG. 6H), Biochanin A-7-pivalate (FIG. 7A), Biochanin A-dipavalate (FIG. 7B), Biochanin A-7-acrylate (FIG. 7C), Biochanin A diacrylate (FIG. 7D), Biochanin A-7-methyl fumarate (FIG. 7E), Biochanin A-di(methyl fumarate) (FIG. 7F), Biochanin A-7-butylcarbamate (FIG. 7G), Biochanin A di(butylcarbamate) (FIG. 7H), Biochanin A-7-phosphate disodium salt (FIG. 8A), Biochanin A-7-isopropylate (FIG. 8B), 7-pivaloxymethyl-Biochanin A (FIG. 8C), Biochanin A diisopropylate (FIG. 8D), Biochanin A-7-isopropyl carbonate (FIG. 8E), Biochanin A diisopropyl carbonate (FIG. 8F), Isopropyloxycarbonylmethoxy-Biochanin A (FIG. 8G).

mutant BEST1 R218C [2] = biological target: T1, mutant BEST1 R218C; assay: YFP-halide transport assay (I- influx), MDCKII cells expressing mutant BEST1-R218C; format: cell-based; details: MDCKII cells; cell line not stated; FIG. 4D
Method: Human hiPSC-RPE or MDCKII cells were transduced via lentivirus particles which were produced by co-transfecting HEK293T cells with the yellow fluorescence protein (YFPH148Q/I152L)-pLJM1 and helper plasmids pMD2.G and psPAX2 using the Ca^2+ phospate transfection method. After six weeks of cultivation in 96-well black microtiter plates, cells were incubated with 100 mM Cl^− containing solution and basal YFP fluorescence was measured in a Tecan microplate reader. Subsequently Cl^− was replaced with equimolar I^− and decrease of YFP fluorescence intensity was monitored for another 2 min in 10 sec intervals.
To analyze BEST1-mediated anion transport in the cell lines generated in the previous examples, a well-established halide transport assay (Galietta et al., 2001) was adapted. […] Addition of I— leads to specific YFP quenching over time and changes of fluorescence intensities can be monitored on a plate reader. MDCKII cells were incubated with 100 mM Cl— containing solution and steady state YFP fluorescence signal intensities were measured after 6 minutes. Subsequently, Cl— was replaced by equimolar I— and anion permeability was monitored by decreasing YFP intensities as a result of BEST1-mediated I— influx in a time course up to 2 minutes (FIG. 2B). For several independent BEST1 wildtype cell lines a fast kinetic of decreasing fluorescence intensities to ˜30 to 40% was observed while the untransfected control cell lines remained flat (FIGS. 2C and D).
Example 8—Evaluation of BioA(C2H3O2)2 activity in MDCKII cells MDCKII cells co-expressing YFP and BEST1 wildtype or mutant p.(R218C) were seeded on black 96-well plates and cultivated for 6 days to achieve polarity, a requirement for correct basolateral localization of BEST1 in epithelial cells. Compounds were tested separately at 10 μM concentration in a 96-well format. After compound addition for 24 h, cells were subjected to an inwardly directed I— gradient to drive I— influx and produce decreasing (quenched) fluorescence signals. […]

SMILES	anion transport activity (kinetics of I- efflux) in comparison to untreated cells (mutant BEST1 R218C [1])	effect on BEST1-mediated I- influx (mutant BEST1 R218C [2])
COc1ccc(-c2coc3cc(OC(=O)C(C)(C)C)cc(O)c3c2=O)cc1 [Biochanin A-7-pivalate]	no or only minimal effect	
COC(=O)/C=C/C(=O)Oc1cc(OC(=O)/C=C/C(=O)OC)c2c(=O)c(-c3ccc(OC)cc3)coc2c1 [Biochanin A-di(methyl fumarate), Biochanin A di(methyl fumarate)]	strongly increased	
COc1ccc(-c2coc3cc(OC)cc(O)c3c2=O)cc1 [Biochanin A-7-methyl ether]	no or only minimal effect	
CCCCNC(=O)Oc1cc(OC(=O)NCCCC)c2c(=O)c(-c3ccc(OC)cc3)coc2c1 [Biochanin A di(butylcarbamate)]	strongly increased	
CCCCC(=O)Oc1cc(OC(=O)CCCC)c2c(=O)c(-c3ccc(OC)cc3)coc2c1 [Biochanin A dipentanoate]	strongly increased	
COc1ccc(-c2coc3cc(OCOC(=O)OC(C)C)cc(O)c3c2=O)cc1	noticeable increased	
COc1ccc(-c2coc3cc(OCOC(=O)C(C)(C)C)cc(O)c3c2=O)cc1 [7-pivaloxymethyl-Biochanin A, 7-Pivaloxymethyl-Biochanin A]	noticeable increased	
COc1ccc(-c2coc3cc(OP(=O)([O-])[O-])cc(O)c3c2=O)cc1.[Na+].[Na+] [Biochanin A-7-phosphate disodium salt]	noticeable increased	
COc1ccc(-c2coc3cc(OC(=O)C(C)C)cc(OC(=O)C(C)C)c3c2=O)cc1 [Biochanin A diisopropylate]	strongly increased	
COc1ccc(-c2coc3cc(OC(=O)OC(C)C)cc(OC(=O)OC(C)C)c3c2=O)cc1 [Biochanin A diisopropyl carbonate]	strongly increased	
COc1ccc(-c2coc3cc(O)cc(OC)c3c2=O)cc1 [5,4-dimethoxy-7-hydroxyisoflavone]	no or only minimal effect	
COc1ccc(-c2coc3cc(OC(=O)C(C)C)cc(O)c3c2=O)cc1 [Biochanin A-7-isopropylate]	no or only minimal effect	
C=CC(=O)Oc1cc(O)c2c(=O)c(-c3ccc(OC)cc3)coc2c1 [Biochanin A-7-acrylate]	noticeable increased	
CCCCNC(=O)Oc1cc(O)c2c(=O)c(-c3ccc(OC)cc3)coc2c1 [Biochanin A-7-butylcarbamate]	no or only minimal effect	
CCCCC(=O)Oc1cc(O)c2c(=O)c(-c3ccc(OC)cc3)coc2c1 [Biochanin A-7-pentanoate]	no or only minimal effect	
C=CC(=O)Oc1cc(OC(=O)C=C)c2c(=O)c(-c3ccc(OC)cc3)coc2c1 [Biochanin A diacrylate]	strongly increased	
COC(=O)/C=C/C(=O)Oc1cc(O)c2c(=O)c(-c3ccc(OC)cc3)coc2c1 [Biochanin A-7-methyl fumarate]	no or only minimal effect	
COc1ccc(-c2coc3cc(OC(=O)OC(C)C)cc(O)c3c2=O)cc1 [Biochanin A-7-isopropyl carbonate]	strongly increased	
COc1ccc(-c2coc3cc(OC(=O)C(C)(C)C)cc(OC(=O)C(C)(C)C)c3c2=O)cc1 [Biochanin A-dipavalate, Biochanin A dipivalate]	noticeable increased	
COc1ccc(-c2coc3cc(OC(C)=O)cc(O)c3c2=O)cc1 [Biochanin A-7-acetate]	no or only minimal effect	
COc1ccc(-c2coc3cc(O)cc(O)c3c2=O)cc1 [Biochanin A]	no or only minimal effect	no effect
